“Also recorded” adds a separate entry of the source.
Experiments:
Format in all cases: in vivo, rat
[1] = test system: diabetic rats; experiment: C peptide serum concentration, diabetic rats; details: for C peptide serum concentration: doses daily for 5 days orally, n = 8
Procedure: (§1) In this study white, adult male Wistar rats with average weights between 200 to 300 grams were used. During the study, the animals had free access to food and water and were exposed to changes of dark and light every 12 hours. Access to the food was restricted 12 hours before measurement of glucose blood level with free access to water.
(§2) The experiment was performed on a normoglycaemic group (Group 1, 32 rats, 8 per treatment) and diabetic rats (Group 2, 32 rats, 8 per treatment). For the diabetic rat experiments diabetes was induced with intraperitoneal injection of alloxan 100 mg/kg. Alloxan is very well verified diabetogenic substance for inducing diabetes in rats and other animal species (rabbit, dog, mice et cetera). See, for example, McLetchie, J.R. Coll Physicians Edinb, 32: 134-142, 2002; Lenzen & Panten, Diabetologia, 31: 337-342, 1988; Shaw et al., Lancet, 11: 384-386, 1943; Goldner & Gomori, Endocrinology, 35: 241-268, 1943.
(§3) 1). Saline solution, 1 ml/kg, per orally, daily for 5 days (control group); 2). Stevioside, 20 mg/kg, orally, daily for 5 days; 3). Sodium salt of 3α,7α-dihydroxy-12-oxo-5β-cholanate (monoketocholic acid-MKC), 4 mg/kg, orally, daily for 5 days; and 4). 1 ml/kg of the composition described in Example 1, orally, daily for 5 days.
(§4) In the diabetic rat the criterion for successful diabetes induction was blood glucose greater than 20 mmol/L on the third day after the last alloxan dose after 3 hours of fasting with free access to water.
15 minutes after the 5th dose, the animals were exposed to an oral glucose tolerance test (OGTT) using 4 g/kg, orally. Glucose blood concentrations were measured before the treatment, after the 5th dose, before OGTT, and 30 minutes after OGTT. […]
All biochemical analyses of serum were done by standard procedures, as recommended by the International Federation for Clinical Chemistry (IFCC), on automatic spectrophotometer LISA 300 plus with International Quality Control. The following were measured in serum: […]

[2] = test system: diabetic rats; experiment: Serum cholesterol and lipid profile after 5 days treatment, diabetic rats; details: for HDL cholesterol serum concentration / LDL cholesterol serum concentration / Serum total cholesterol concentration: 5 days treatment orally; for HDL cholesterol serum concentration / LDL cholesterol serum concentration / Serum total cholesterol concentration / LDL:HDL Ratio (ratios of means): n = 8; for LDL:HDL Ratio (ratios of means): after 5 days treatment
Procedure: as §2, §3
(§5) 15 minutes after the 5th dose, the animals were exposed to an oral glucose tolerance test (OGTT) using 4 g/kg, orally. Glucose blood concentrations were measured before the treatment, after the 5th dose, before OGTT, and 30 minutes after OGTT. Then the animals were anaesthetised with urethane injected intraperitoneally, 750 mg/kg, and blood samples for further biochemical analyses were taken by cardiopunction.
(§6) All biochemical analyses of serum were done by standard procedures, as recommended by the International Federation for Clinical Chemistry (IFCC), on automatic spectrophotometer LISA 300 plus with International Quality Control. The following were measured in serum:
(§7) 1). Triglycerides concentration (GPO-PAP kit obtained from Boehringer Mannheim GmbH (Mannheim, Germany) in accordance with the manufacturers instructions) 2). Total low density lipoprotein (LDL) and high density lipoprotein (HDL) 3). Cholesterol concentration (CHOD-PAP kit obtained from Boehringer Mannheim GmbH (Mannheim, Germany) in accordance with the manufacturers instructions); and 4). C-peptide concentration.
(§8) The composition from Example 1 was trialled to see the effect on cholesterol levels and on serum lipid profiles. Generally the desired outcome was a decrease in low density lipoprotein (LDL), with no concomitant decrease in high density lipoprotein (HDL). It was also hypothesised that there would be a compatibility with glycaemic effects shown in Example 2.
(§9) The experimental procedures were essentially those described in Example 2.

[3] = test system: diabetic Wistar rats; experiment: Blood glucose and OGTT after 5 days oral treatment, alloxan-diabetic rats; details: for Glucose blood concentration, After OGTT / Glucose blood concentration, After treatment (one dose daily for 5 days) / Glucose blood concentration, Before treatment: diabetic Wistar rats (alloxan), n = 8; for Glucose blood concentration, After OGTT: 30 minutes after OGTT (glucose 4 g/kg orally) after the 5th dose; for Glucose blood concentration, After treatment (one dose daily for 5 days): MKH 4 mg/kg, stevioside 20 mg/kg orally per day, before OGTT; for Glucose blood concentration, Before treatment: baseline of the group before treatment; for Effect on glucose levels under increased glucose loading during the OGTT (in words): substances given alone, rat group not given
Procedure: as §1, §2, §3, §4, §5

[4] = test system: normoglycaemic Wistar rats; experiment: Blood glucose and oral glucose tolerance test (OGTT) after 5 days oral treatment, normoglycaemic rats; details: n = 8; for Glucose blood concentration, After OGTT: 30 minutes after OGTT (glucose 4 g/kg orally) after the 5th dose; for Glucose blood concentration, After treatment (one dose daily for 5 days): MKH 4 mg/kg, stevioside 20 mg/kg orally per day, before OGTT; for Glucose blood concentration, Before treatment: baseline of the group before treatment
Procedure: as §1, §2, §3, §5

[5] = test system: normoglycaemic rats; experiment: C peptide serum concentration, normoglycaemic rats; details: for Effect on C peptide levels (in words): non-diabetic rats, 5 days treatment; for C peptide serum concentration: normoglycaemic rats, doses daily for 5 days orally, n = 8
Procedure: as §1, §2, §3, §5, §6, §7

[6] = test system: normoglycaemic rats; experiment: Serum cholesterol and lipid profile after 5 days treatment, normoglycaemic rats; details: for Change in HDL serum cholesterol concentration (in words) / Change in LDL serum cholesterol concentration versus control (in words) / Change in total cholesterol serum concentration (in words): normoglycaemic (non-diabetic) rats, 5 days treatment; for HDL serum cholesterol concentration / LDL serum cholesterol concentration / Serum total cholesterol concentration / LDL:HDL Ratio (ratios of means): normoglycaemic rats, n = 8; for HDL serum cholesterol concentration / LDL serum cholesterol concentration / Serum total cholesterol concentration: 5 days treatment orally; for LDL:HDL Ratio (ratios of means): after 5 days treatment
Procedure: as §3, §5, §6, §7, §8, §9

[7] = test system: diabetic rats; experiment: Serum cholesterol concentrations after 7 day oral treatment of diabetic rats (lovastatin, MKH, combination); details: for HDL cholesterol / LDL cholesterol / LDL/HDL ratio / Total cholesterol: 7 day oral treatment, lovastatin 20 mg/kg/day, MKH 2 mg/kg/day, n = 8; for Change in total cholesterol (in words): 7 days oral treatment
[8] = 7 days treatment, MKH 2 mg/kg, lovastatin 20 mg/kg orally

| Compound | C peptide serum concentration [1] [pmol/L] | Change in LDL cholesterol levels (in words) ([2]; 5 days treatment) | Change in total cholesterol serum concentration (in words) ([2]; 5 days treatment) | HDL cholesterol serum concentration [2] | LDL cholesterol serum concentration [2] [mmol/L] | Serum total cholesterol concentration [2] [mmol/L] | LDL:HDL Ratio (ratios of means) [2] | Glucose blood concentration, After OGTT [3] [mmol/L] | Glucose blood concentration, After treatment (one dose daily for 5 days) [3] | Glucose blood concentration, Before treatment [3] [mmol/L] | Effect on glucose levels under increased glucose loading during the OGTT (in words) [3] | Glucose blood concentration, After OGTT [4] [mmol/L] | Glucose blood concentration, After treatment (one dose daily for 5 days) [4] [mmol/L] | Glucose blood concentration, Before treatment [4] [mmol/L] | Effect on C peptide levels (in words) [5] | C peptide serum concentration [5] [pmol/L] | Change in HDL serum cholesterol concentration (in words) [6] | Change in LDL serum cholesterol concentration versus control (in words) [6] | Change in total cholesterol serum concentration (in words) [6] | HDL serum cholesterol concentration [6] [mmol/L] | also measured |
| --- | --- | --- | --- | --- | --- | --- | --- | --- | --- | --- | --- | --- | --- | --- | --- | --- | --- | --- | --- | --- | --- |
| C=C1C[C@@]23CC[C@H]4[C@@](C)(CCC[C@@]4(C)C(=O)O[C@@H]4O[C@H](CO)[C@@H](O)[C@H](O)[C@H]4O)[C@@H]2CC[C@]1(O[C@@H]1O[C@H](CO)[C@@H](O)[C@H](O)[C@H]1O[C@@H]1O[C@H](CO)[C@@H](O)[C@H](O)[C@H]1O)C3 [Stevioside] | 230.12 ± 28.45 | highly significant decrease | no significant changes | 0.85 ± 0.20 mmol/L | 0.42 ± 0.09 | 1.39 ± 0.31 | 0.49 | 28.03 ± 1.08 | 22.53 ± 1.07 mmol/L | 25.14 ± 1.87 | beneficial effects | 11.4 ± 2.9 | 5.47 ± 0.67 | 6.95 ± 0.99 | Neither stevioside or 3α,7α-dihydroxy-12-oxo-5β-cholanate alone had statistically significant effects | 294 ± 93.2 | no significant changes | significantly decreased (one third of control values) | no significant changes | 0.78 ± 0.18 | Effect on C-peptide (in words) ([1]; 5 days treatment): significant increases; LDL serum cholesterol concentration [6]: 0.1 ± 0.08 mmol/L; Serum total cholesterol concentration [6]: 1.1 ± 0.30 mmol/L; LDL:HDL Ratio (ratios of means) [6]: 0.13 |
| CC[C@H](C)C(=O)O[C@H]1C[C@@H](C)C=C2C=C[C@H](C)[C@H](CC[C@@H]3C[C@@H](O)CC(=O)O3)[C@H]21 [Lovastatin, reference compound] |  |  |  |  |  |  |  |  |  |  |  |  |  |  |  |  |  |  |  |  | HDL cholesterol [7]: 0.74 ± 0.16 mmol/L; LDL cholesterol [7]: 0.09 ± 0.17 mmol/L; LDL/HDL ratio [7]: 0.15 ± 0.29; Total cholesterol [7]: 1.19 ± 0.06 mmol/L; Change in total cholesterol (in words) [7]: reduced total cholesterol by a similar amount; Change in HDL levels (in words) [7, 8]: reduced HDLs significantly |
| C[C@H](CCC(=O)[O-])[C@H]1CC[C@H]2[C@@H]3[C@H](O)C[C@@H]4C[C@H](O)CC[C@]4(C)[C@H]3CC(=O)[C@]12C.[Na+] [MKH, Sodium salt of 3α,7α-dihydroxy-12-oxo-5β-cholanate] | 178.38 ± 34.25 | decreases in LDL levels and while these were not statistically significant | no significant changes | 0.50 ± 0.12 !! mmol/l | 0.56 ± 0.17 | 1.03 ± 0.26 | 1.12 | 27.05 ± 1.17 | 22.34 ± 1.15 x mmol/L | 24.73 ± 2.15 | beneficial effects | 8.52 ± 3.19 | 5.42 ± 1.15 | 6.82 ± 2.15 | Neither stevioside or 3α,7α-dihydroxy-12-oxo-5β-cholanate alone had statistically significant effects | 230.87 ± 80.64 | no significant changes | significantly decreased (one third of control values) | no significant changes | 0.73 ± 0.20 | Change in LDL:HDL ratio (in words) ([2]; 5 days treatment): slight increase; Change in HDL levels (in words) ([2]; 5 days treatment, MKH 4 mg/kg): A decrease was observed; Effect on glucose levels before and after the OGTT (in words) ([3]; diabetic rats, 5 days treatment): significant decrease; LDL serum cholesterol concentration [6]: 0.11 ± 0.04 mmol/L; Serum total cholesterol concentration [6]: 0.99 ± 0.30 mmol/L; LDL:HDL Ratio (ratios of means) [6]: 0.01; HDL cholesterol [7]: 0.89 ± 0.14 mmol/L; LDL cholesterol [7]: 0.03 ± 0.04 mmol/L; LDL/HDL ratio [7]: 0.04 ± 0.04; Total cholesterol [7]: 1.21 ± 0.14 mmol/L; Change in total cholesterol (in words) [7]: reduced total cholesterol by a similar amount; Change in HDL levels (in words) [7, 8]: this effect was not observed; also recorded: did not do so; Change in LDL levels (in words) [7, 8]: very highly significant decrease; also recorded: significantly greater than that achieved by Lovastatin; Change in LDL:HDL ratio (in words) ([7]; Day 7): significant decrease |

From US20090074895A1, “COMPOSITION AND USES THEREOF” (VANADIS BIOSCIENCE LTD, priority 2005, published 2009)
